Source: patent US20120232062A1, “AZAINDAZOLES TO TREAT FLAVIVIRIDAE VIRUS INFECTION” (EIGER BIOPHARMACEUTICALS, INC., priority 2009, published 2012)

What follows are compounds tested on HCV genotype 1b (assay: HCV 1b replicon luciferase assay). Conditions: Hepatitis C virus, 48 h, read-out: EC50 in the 48 hour 1b replicon assay, 48 hour.
Assay type: cell-based
Source text: A suitable 1b HCV RNA replicon assay uses the Huh7 cell line which contains an HCV 1b RNA replicon with a stable luciferase (LUC) reporter. This construct contains modifications that make the cell line more robust and provides stable LUC expression for antiviral screening. The LUC reporter is used as an indirect measure of HCV replication. The activity of the LUC reporter is directly proportional to HCV RNA levels and positive control antiviral compounds behave comparably using LUC endpoints. […]
Fresh growth medium is prepared just before use. The container used in the procedure is a 10 cm diameter culture dish. HCV replicon reporter cell lines are used. Prepare complete medium: add FBS and appropriate additives as described in “Culture Media”, below. Pre-warm the medium in a 37° C. thermostat water bath. Remove the dish from a 37° C. CO2 incubator. Check the cell name and complete medium and passage number marked on the dish. Aspirate the medium carefully and add 1 ml PBS to rinse the cells. Remove and discard the solution and add 1 ml of 0.25% Trypsin/0.02% EDTA. Rinse the cells with the added Trypsin/EDTA to ensure all the cells have been rinsed. Remove the Trypsin/EDTA with a vacuum pump and incubate at 37° C. for 3-5 minutes. Examine the cell morphology under an inverted microscope to confirm that a single cell suspension is clearly visible. Add 3 ml of complete medium to the dish and suspend the cell by gentle pipetting. Count the cell numbers with a hematometer. Adjust cell density to 100 k/ml by adding appropriate volume of the complete medium. Add 100 μl of cell suspension to each well of a 96-well white plate; the cell density is thus 10 k per well. Mark the plate with cell name, passage number, seeding density, date and the name of the operator. Place the 96-well assay plate in 37° C. 5% CO2 incubator for 24 hours.
Compounds are prepared or provided at 25 mM in 100% DMSO. This is the compound stock solution. The dilution procedure should be performed in a cell culture hood. Dispense the stock solution into the second column of a 96-well plate. Prepare 9-step (10 concentrations total), 5-fold serial dilutions by transferring 10 μA of the compound into the next well containing 40 μA of DMSO. Repeat for all compounds. Aspirate 2 μl of the above compound solution from each well and add into 198 μl complete media using a 12-channel pipetter to obtain the 10-fold concentration compound solution with 1% DMSO, mix well.
Remove the 96-well assay plate from the 37° C./5% CO2 incubator, examine the cell morphology under an inverted microscope. In a cell culture hood, add 10 μl of the 10× concentration compounds solution into each well on the 96-well assay plate. All compound's dose responses are done in duplicate. The starting final concentration of the compounds is 25 μM, and DMSO final concentration 0.1%. Mark the plate with compound code(s) and concentrations. Place the 96-well assay plate into CO2 incubator for 48 hours. Add 30 μl of Stead-Glo Luciferase System (Promega) reagent to each well and mix by gentle shaking on a plate shaker for 5 minutes to allow throughout cell lysis. Measure the luminescence with Envision (Perkin Elmer) with an integration time of 2 seconds. Record and analyze the data.
The cell culture media is DMEM complete: DMEM (Life Technologies #41965-039) supplemented with 10% FCS, 2 mM Glutamin (Life Technologies #25030-024), Penicillin (100 IU/ml)/Streptomycin (100 μg/ml) (Life Technologies #15140-114) and 1× nonessential amino acids (Life Technologies #11140-035). G418 (“Geneticin”, Life Technologies): concentrations are given as weight per volume of the original substance. Specific activity of a typical batch is ca. 700 μg/mg as stated by the manufacturer. […] Therefore each new batch of G418 should be tested individually e.g. in an electroporation experiment using different selection conditions (0.2-1 mg/ml).

| SMILES | EC50 [µM] |
| --- | --- |
| Cn1nc(C(=O)NC2CCNCC2)c2ccc(N3CCCCCC3)nc21 [EBP697] | < 3 |
| CCC(CC)Oc1ccc2c(C(=O)NC3CCNCC3)n[nH]c2n1 [EBP726] | < 3 |
| CCC(CC)Oc1ccc2c(COCC3CCNCC3)nn(Cc3ccc(Cl)cc3)c2n1 [EBP756] | < 3 |
| Cc1ccc(C(=O)Nc2nn(C)c3nc(N4CCCCCC4)ccc23)s1 [EBP841] | < 3 |
| CC1CC(NCc2nn(C)c3nc(N4CCCCCC4)ccc23)CCN1 (centres unmarked) [EBP909] | < 3 |
| Cn1nc(C(=O)NC2CCN(CC3CCCCC3)CC2)c2ccc(N3CCCCCC3)nc21 [EBP987] | < 3 |
| Cn1nc(C(=O)NCc2cccs2)c2cc(NC3CCCCC3)cnc21 [EBP1147] | < 3 |
| Cn1nc(CCCN2CCCC2)c2ccc(N3CCCCCCC3)nc21 [EBP1171] | < 3 |

Same assay, conditions: Hepatitis C virus, Huh-7, 48 h, Table 1; Huh7 HCV 1b replicon, luciferase reporter, 48 hours; read-out: 1b EC50

| SMILES | EC50 [µM] |
| --- | --- |
| O=C(Nc1n[nH]c2nc(N3CCCCCC3)ccc12)C1CCCNC1 (centres unmarked) [compound 681] | 8.5 |
| CC(C)CNc1ccc2c(C(=O)NC3CCCNC3)nn(C)c2n1 (centres unmarked) [compound 684] | 10 |
| CC(C)CN(C)c1ccc2c(C(=O)NC3CCCNC3)nn(C)c2n1 (centres unmarked) [compound 686] | 2.6 |
| CC(C)CNc1ccc2c(C(=O)NC3CCNCC3)nn(C)c2n1 [compound 688] | 4.9 |
| CC(C)CN(C)c1ccc2c(C(=O)NC3CCNCC3)nn(C)c2n1 [compound 690] | 1.2 |
| Cn1nc(C(=O)NC2CCCNC2)c2ccc(N3CCCCCC3)nc21 (centres unmarked) [compound 698] | 3.8 |
| Cn1nc(C(=O)NC2CCN(S(C)(=O)=O)CC2)c2ccc(N3CCCCCC3)nc21 [compound 699] | 3.8 |
| Cn1nc(C(=O)NC2CCCN(S(C)(=O)=O)C2)c2ccc(N3CCCCCC3)nc21 (centres unmarked) [compound 700] | 3.8 |
| O=C(NC1CCNCC1)c1nn(Cc2ccc(Cl)cc2)c2nc(N3CCCCCC3)ccc12 [compound 704] | 2.5 |
| O=C(NC1CCCNC1)c1nn(Cc2ccc(Cl)cc2)c2nc(N3CCCCCC3)ccc12 (centres unmarked) [compound 705] | 2.7 |
| O=C(N[C@H]1CCNC1)c1nn(Cc2ccc(Cl)cc2)c2nc(N3CCCCCC3)ccc12 [compound 707] | 3.3 |
| CC1CC(NC(=O)c2nn(Cc3ccc(Cl)cc3)c3nc(N4CCCCCC4)ccc23)CCN1 (centres unmarked) [compound 708] | 2.4 |
| O=C(NC1CCNCC1)c1nnc2n(Cc3ccc(Cl)cc3)c(N3CCCCCC3)ccc1-2 [compound 709] | 8.7 |
| O=C(NC1CCCNC1)c1nnc2n(Cc3ccc(Cl)cc3)c(N3CCCCCC3)ccc1-2 (centres unmarked) [compound 710] | 7.9 |
| O=C(NC1CCNC1)c1nnc2n(Cc3ccc(Cl)cc3)c(N3CCCCCC3)ccc1-2 (centres unmarked) [compound 712] | 8.2 |
| CC1CC(NC(=O)c2nnc3n(Cc4ccc(Cl)cc4)c(N4CCCCCC4)ccc2-3)CCN1 (centres unmarked) [compound 713] | 6.1 |
| CCC(CC)Oc1ccc2c(C(=O)NC3CCCNC3)n[nH]c2n1 (centres unmarked) [compound 725] | 7.6 |
| O=C(NC1CCCNC1)c1n[nH]c2nc(OC3CCCCC3)ccc12 (centres unmarked) [compound 728] | 8 |
| CC1CC(NC(=O)c2n[nH]c3nc(N4CCCCCC4)ccc23)CCN1 (centres unmarked) [compound 734] | 2.6 |

| SMILES | EC50 [µM] |
| --- | --- |
| O=C(/C=C/c1cccnc1)Nc1nn(Cc2ccc(Cl)cc2)c2nc(N3CCCCCC3)ccc12 [compound 747] | 9 |
| O=C(NC1CC2CCCC(C1)N2)c1nn(Cc2ccc(Cl)cc2)c2nc(N3CCCCCC3)ccc12 (centres unmarked) [compound 751] | 2 |
| Nc1nn(Cc2ccc(Cl)cc2)c2nc(N3CCCCCC3)ccc12 [compound 759] | 8.6 |
| Clc1ccc(Cn2nc(CNC3CCNCC3)c3ccc(N4CCCCCC4)nc32)cc1 [compound 762] | 2.9 |
| Clc1ccc(Cn2nc(CN3CCCC3)c3ccc(N4CCCCCC4)nc32)cc1 [compound 763] | 8.7 |
| CN(Cc1ccccc1)c1ccc2c(C(=O)NC3CCNCC3)n[nH]c2n1 [compound 777] | 2 |
| COC[C@@H]1CCCN1c1ccc2c(C(=O)NC3CCNCC3)n[nH]c2n1 [compound 778] | 17 |
| Cn1nc(NC(=O)c2ccncc2)c2ccc(N3CCCC3)nc21 [compound 788] | 9.5 |
| Cn1nc(CN2CCCC2CO)c2ccc(N3CCCCCC3)nc21 (centres unmarked) [compound 791] | 8.5 |
| CCC(CC)Oc1ccc2c(COCCN3CCCCC3)nn(Cc3ccc(Cl)cc3)c2n1 [compound 792] | 4.6 |
| CCC(CC)Oc1ccc2c(C(=O)NC3CCCNC3)nn(Cc3ccc(Cl)cc3)c2n1 (centres unmarked) [compound 794] | 2.8 |
| CCC(CC)Oc1ccc2c(C(=O)NC3CCNCC3)nn(Cc3ccc(Cl)cc3)c2n1 [compound 795] | 3.2 |
| Cn1nc(CNC2CCCNC2)c2ccc(N3CCCCCC3)nc21 (centres unmarked) [compound 811] | 2.9 |
| Cn1nc(CN2CCNCC2)c2ccc(N3CCCCCC3)nc21 [compound 812] | 4.6 |
| O=C(CC1CCNCC1)Nc1nn(Cc2ccc(Cl)cc2)c2nc(N3CCCC3)ccc12 [compound 813] | 6.8 |
| CCC(CC)Oc1ccc2c(C(=O)NC3CCCNC3)nn(C)c2n1 (centres unmarked) [compound 815] | 6.6 |
| CCC(CC)Oc1ccc2c(C(=O)NC3CCNCC3)nn(C)c2n1 [compound 816] | 2.4 |
| Cn1nc(C(=O)NC2CCNCC2)c2ccc(OC3CCCCC3)nc21 [compound 817] | 3.4 |
| Cn1nc(C(=O)N[C@H]2CCNC2)c2ccc(N3CCCCCC3)nc21 [compound 822] | 4.3 |

| SMILES | EC50 [µM] |
| --- | --- |
| Cn1nc(C(=O)N2CCNCC2)c2ccc(N3CCCCCC3)nc21 [compound 823] | 7.6 |
| Cn1nc(C(=O)Nc2cccc(S(N)(=O)=O)c2)c2ccc(N3CCCCCC3)nc21 [compound 824] | 3.5 |
| Cn1nc(C(=O)Nc2cc[nH]n2)c2ccc(N3CCCCCC3)nc21 [compound 827] | 3.2 |
| Cn1nc(C(=O)N2CCC(N)CC2)c2ccc(N3CCCCCC3)nc21 [compound 829] | 8.7 |
| Cn1nc(C(=O)NCc2ccccc2)c2ccc(N3CCCCCC3)nc21 [compound 830] | 7.3 |
| Cn1nc(NC(=O)c2cccnc2Cl)c2ccc(N3CCCCCC3)nc21 [compound 832] | 3.3 |
| Cn1nc(NC(=O)c2ccncc2Cl)c2ccc(N3CCCCCC3)nc21 [compound 833] | 2.9 |
| Cn1nc(NC(=O)C2CCCCC2)c2ccc(N3CCCCCC3)nc21 [compound 835] | 2.4 |
| Cn1nc(NC(=O)c2ccccc2C(F)(F)F)c2ccc(N3CCCCCC3)nc21 [compound 836] | 4.1 |
| Cn1nc(NC(=O)c2cccnc2)c2ccc(N3CCCCCC3)nc21 [compound 838] | 3.8 |
| Cn1nc(NC(=O)c2ccncc2)c2ccc(N3CCCCCC3)nc21 [compound 839] | 2.5 |
| Cn1nc(NC(=O)CC2CCCNC2)c2ccc(N3CCCCCC3)nc21 (centres unmarked) [compound 843] | 8.3 |
| Cn1nc(NC(=O)[C@H]2CC[C@@H](N)CC2)c2ccc(N3CCCCCC3)nc21 [compound 844] | 6.6 |
| O=C(NC1CCNCC1)c1nn(CC2CCCCC2)c2nc(N3CCCCCC3)ccc12 [compound 845] | 2 |
| O=C(NCC1CCCNC1)c1nn(Cc2ccc(Cl)cc2)c2nc(N3CCCCCC3)ccc12 (centres unmarked) [compound 850] | 2.5 |
| CC(C)Cn1nc(C(=O)NC2CCNCC2)c2ccc(N3CCCCCC3)nc21 [compound 852] | 2.9 |
| O=C(NC1CCNCC1)c1nn(Cc2cccc(Cl)c2)c2nc(N3CCCCCC3)ccc12 [compound 854] | 7.2 |
| O=C(NC1CCNCC1)c1nn(CCc2ccc(Cl)cc2)c2nc(N3CCCCCC3)ccc12 [compound 855] | 3.7 |

Same assay, conditions: Table 1; Huh7 HCV 1b replicon, luciferase reporter, 48 hours; read-out: 1b EC50

| SMILES | EC50 [µM] |
| --- | --- |
| Cn1nc(C(=O)NC2CC3CCCC(C2)N3)c2ccc(N3CCCCCC3)nc21 (centres unmarked) [compound 831] | 2.7 |
